Reference: US20070117776A1, “Low Dose Therapy Of DNA Methylation Inhibitors” (priority 2005, published 2007)
Where two headings read alike, the source gives them in different places.

Type: physicochemical
Description: Maintaining the solution at low temperature and buffering the drug can control degradation kinetics of aqueous solutions but the stability achieved is not sufficient to render the product stable during its entire proposed shelf life. A dry solid formulation of decitabine which is stable was achieved by lyophilization of an aqueous solution. The process of lyophilization to obtain a solid form is considered essential for maximizing the stability of the product.
A bulk solution of 5 mg/mL of decitabine was prepared during compounding. To minimize degradation during compounding of the bulk solution prior to lyophilization, the bulk solution was maintained at low temperature, and the time the drug remains in solution prior to lyophilization was minimized. Maximum solution stability was achieved by dissolving the drug in a pH 6.8-7.0 phosphate buffer solution at 0-4° C.
Based on the results, appropriate recommendations for the preparation and storage of the reconstituted and diluted solutions can be made to pharmacists and clinical practitioners. The product was reconstituted in 10 mL WFI and diluted with one of the three pre-chilled infusion fluids indicated in Table 1 and Table 2 to two different concentrations, 0.1 mg/mL and 1 mg/mL covering the entire concentration range expected to be used in the clinical setting. The diluted solutions were stored for one to ten hours in infusion bags in the refrigerator at 2-8° C. to simulate conditions prior to infusion and then removed and placed at room temperature to simulate conditions during infusion. Bags placed in the refrigerator for one hour were removed and placed at room temperature and sampled thereafter for the next three hours at room temperature (Experiment No. 1) while the bags placed in the refrigerator for ten hours were removed and sampled for the next two hours at room temperature (Experiment No. 2).
The method used to estimate degradation products is based on percent peak area measurements assuming the degradation products have a response factor of 1, with respect to decitabine.
Table 1 and Table 2 also show the pH data obtained after the preparation of the infusion, which is consistently within ±0.3 pH units of neutral pH.

[1] = 0.1 mg/mL in 0.9% NaCl, Experiment 1 (2-8° C. one hour, then room temperature), at 0 h
[2] = 0.1 mg/mL in 0.9% NaCl, Experiment 1 (2-8° C. one hour, then room temperature), at 1 h
[3] = 0.1 mg/mL in 0.9% NaCl, Experiment 1 (2-8° C. one hour, then room temperature), at 2 h
[4] = 0.1 mg/mL in 0.9% NaCl, Experiment 1 (2-8° C. one hour, then room temperature), at 3 h
[5] = 0.1 mg/mL in 0.9% NaCl, Experiment 1 (2-8° C. one hour, then room temperature), at 4 h
[6] = 0.1 mg/mL in 0.9% NaCl, Experiment 2 (2-8° C. ten hours, then room temperature), at 0 h
[7] = 0.1 mg/mL in 0.9% NaCl, Experiment 2 (2-8° C. ten hours, then room temperature), at 10 h
[8] = 0.1 mg/mL in 0.9% NaCl, Experiment 2 (2-8° C. ten hours, then room temperature), at 11 h
[9] = 0.1 mg/mL in 0.9% NaCl, Experiment 2 (2-8° C. ten hours, then room temperature), at 12 h
[10] = 0.1 mg/mL in 5% Dextrose, Experiment 1 (2-8° C. one hour, then room temperature), at 0 h
[11] = 0.1 mg/mL in 5% Dextrose, Experiment 1 (2-8° C. one hour, then room temperature), at 1 h
[12] = 0.1 mg/mL in 5% Dextrose, Experiment 1 (2-8° C. one hour, then room temperature), at 2 h
[13] = 0.1 mg/mL in 5% Dextrose, Experiment 1 (2-8° C. one hour, then room temperature), at 3 h
[14] = 0.1 mg/mL in 5% Dextrose, Experiment 1 (2-8° C. one hour, then room temperature), at 4 h
[15] = 0.1 mg/mL in 5% Dextrose, Experiment 2 (2-8° C. ten hours, then room temperature), at 0 h
[16] = 0.1 mg/mL in 5% Dextrose, Experiment 2 (2-8° C. ten hours, then room temperature), at 10 h
[17] = 0.1 mg/mL in 5% Dextrose, Experiment 2 (2-8° C. ten hours, then room temperature), at 11 h
[18] = 0.1 mg/mL in 5% Dextrose, Experiment 2 (2-8° C. ten hours, then room temperature), at 12 h
[19] = 0.1 mg/mL in Lactated Ringer's, Experiment 1 (2-8° C. one hour, then room temperature), at 0 h
[20] = 0.1 mg/mL in Lactated Ringer's, Experiment 1 (2-8° C. one hour, then room temperature), at 1 h
[21] = 0.1 mg/mL in Lactated Ringer's, Experiment 1 (2-8° C. one hour, then room temperature), at 2 h
[22] = 0.1 mg/mL in Lactated Ringer's, Experiment 1 (2-8° C. one hour, then room temperature), at 3 h
[23] = 0.1 mg/mL in Lactated Ringer's, Experiment 1 (2-8° C. one hour, then room temperature), at 4 h
[24] = 0.1 mg/mL in Lactated Ringer's, Experiment 2 (2-8° C. ten hours, then room temperature), at 0 h
[25] = 0.1 mg/mL in Lactated Ringer's, Experiment 2 (2-8° C. ten hours, then room temperature), at 10 h
[26] = 0.1 mg/mL in Lactated Ringer's, Experiment 2 (2-8° C. ten hours, then room temperature), at 11 h
[27] = 0.1 mg/mL in Lactated Ringer's, Experiment 2 (2-8° C. ten hours, then room temperature), at 12 h
[28] = about 1.0 mg/mL in 0.9% NaCl, Experiment 1 (2-8° C. one hour, then room temperature), at 0 h
[29] = about 1.0 mg/mL in 0.9% NaCl, Experiment 1 (2-8° C. one hour, then room temperature), at 1 h
[30] = about 1.0 mg/mL in 0.9% NaCl, Experiment 1 (2-8° C. one hour, then room temperature), at 2 h
[31] = about 1.0 mg/mL in 0.9% NaCl, Experiment 1 (2-8° C. one hour, then room temperature), at 3 h
[32] = about 1.0 mg/mL in 0.9% NaCl, Experiment 1 (2-8° C. one hour, then room temperature), at 4 h
[33] = about 1.0 mg/mL in 0.9% NaCl, Experiment 2 (2-8° C. ten hours, then room temperature), at 0 h
[34] = about 1.0 mg/mL in 0.9% NaCl, Experiment 2 (2-8° C. ten hours, then room temperature), at 10 h
[35] = about 1.0 mg/mL in 0.9% NaCl, Experiment 2 (2-8° C. ten hours, then room temperature), at 11 h
[36] = about 1.0 mg/mL in 0.9% NaCl, Experiment 2 (2-8° C. ten hours, then room temperature), at 12 h
[37] = about 1.0 mg/mL in 5% Dextrose, Experiment 1 (2-8° C. one hour, then room temperature), at 0 h
[38] = about 1.0 mg/mL in 5% Dextrose, Experiment 1 (2-8° C. one hour, then room temperature), at 1 h
[39] = about 1.0 mg/mL in 5% Dextrose, Experiment 1 (2-8° C. one hour, then room temperature), at 2 h
[40] = about 1.0 mg/mL in 5% Dextrose, Experiment 1 (2-8° C. one hour, then room temperature), at 3 h
[41] = about 1.0 mg/mL in 5% Dextrose, Experiment 1 (2-8° C. one hour, then room temperature), at 4 h
[42] = about 1.0 mg/mL in 5% Dextrose, Experiment 2 (2-8° C. ten hours, then room temperature), at 0 h
[43] = about 1.0 mg/mL in 5% Dextrose, Experiment 2 (2-8° C. ten hours, then room temperature), at 10 h
[44] = about 1.0 mg/mL in 5% Dextrose, Experiment 2 (2-8° C. ten hours, then room temperature), at 11 h
[45] = about 1.0 mg/mL in 5% Dextrose, Experiment 2 (2-8° C. ten hours, then room temperature), at 12 h
[46] = about 1.0 mg/mL in Lactated Ringer's, Experiment 1 (2-8° C. one hour, then room temperature), at 0 h
[47] = about 1.0 mg/mL in Lactated Ringer's, Experiment 1 (2-8° C. one hour, then room temperature), at 1 h
[48] = about 1.0 mg/mL in Lactated Ringer's, Experiment 1 (2-8° C. one hour, then room temperature), at 2 h
[49] = about 1.0 mg/mL in Lactated Ringer's, Experiment 1 (2-8° C. one hour, then room temperature), at 3 h
[50] = about 1.0 mg/mL in Lactated Ringer's, Experiment 1 (2-8° C. one hour, then room temperature), at 4 h
[51] = about 1.0 mg/mL in Lactated Ringer's, Experiment 2 (2-8° C. ten hours, then room temperature), at 0 h
[52] = about 1.0 mg/mL in Lactated Ringer's, Experiment 2 (2-8° C. ten hours, then room temperature), at 10 h
[53] = about 1.0 mg/mL in Lactated Ringer's, Experiment 2 (2-8° C. ten hours, then room temperature), at 11 h
[54] = about 1.0 mg/mL in Lactated Ringer's, Experiment 2 (2-8° C. ten hours, then room temperature), at 12 h

degradation in aqueous solution: degrades rapidly | pH after the preparation of the infusion (0.1 mg/mL in 0.9% NaCl): 6.7 | Decitabine Content [1]: 97.5% | Total Impurities [1]: (2.5%) | Decitabine Content [2]: 96.9% | Total Impurities [2]: (3.2%) | Decitabine Content [3]: 95.7% | Total Impurities [3]: (4.3%) | Decitabine Content [4]: 94.1% | Total Impurities [4]: (6.0%) | Decitabine Content [5]: 92.5% | Total Impurities [5]: (7.7%) | Decitabine Content [6]: 97.8% | Total Impurities [6]: (2.2%) | Decitabine Content [7]: 93.4% | Total Impurities [7]: (6.7%) | Decitabine Content [8]: 92.3% | Total Impurities [8]: (7.7%) | Decitabine Content [9]: 90.8% | Total Impurities [9]: (9.2%) | pH after the preparation of the infusion (0.1 mg/mL in 5% Dextrose): 6.9 | Decitabine Content [10]: 97.4% | Total Impurities [10]: (2.6%) | Decitabine Content [11]: 97.2% | Total Impurities [11]: (2.7%) | Decitabine Content [12]: 96.4% | Total Impurities [12]: (3.6%) | Decitabine Content [13]: 94.9% | Total Impurities [13]: (5.1%) | Decitabine Content [14]: 93.6% | Total Impurities [14]: (6.4%) | Decitabine Content [15]: 98.2% | Total Impurities [15]: (1.9%) | Decitabine Content [16]: 94.9% | Total Impurities [16]: (5.2%) | Decitabine Content [17]: 94.5% | Total Impurities [17]: (5.6%) | Decitabine Content [18]: 93.3% | Total Impurities [18]: (6.7%) | pH after the preparation of the infusion (0.1 mg/mL in Lactated Ringer's): 6.7 | Decitabine Content [19]: 98.3% | Total Impurities [19]: (1.7%) | Decitabine Content [20]: 98.1% | Total Impurities [20]: (1.9%) | Decitabine Content [21]: 97.0% | Total Impurities [21]: (3.0%) | Decitabine Content [22]: 95.9% | Total Impurities [22]: (4.1%) | Decitabine Content [23]: 94.9% | Total Impurities [23]: (5.2%) | Decitabine Content [24]: 98.0% | Total Impurities [24]: (2.1%) | Decitabine Content [25]: 93.4% | Total Impurities [25]: (6.7%) | Decitabine Content [26]: 92.6% | Total Impurities [26]: (7.4%) | Decitabine Content [27]: 91.8% | Total Impurities [27]: (8.3%) | pH of maximum solution stability (5 mg/mL): 6.8-7.0 | pH deviation from neutral pH after the preparation of the infusion (Table 1 and Table 2 solutions): ≤ 0.3 pH units | pH after the preparation of the infusion (about 1.0 mg/mL in 0.9% NaCl): 6.7 | Decitabine Content [28]: 98.0% | Total Impurities [28]: (2.1%) | Decitabine Content [29]: 96.8% | Total Impurities [29]: (3.3%) | Decitabine Content [30]: 94.8% | Total Impurities [30]: (5.2%) | Decitabine Content [31]: 92.8% | Total Impurities [31]: (7.3%) | Decitabine Content [32]: 91.1% | Total Impurities [32]: (9.0%) | Decitabine Content [33]: 97.4% | Total Impurities [33]: (2.7%) | Decitabine Content [34]: 93.4% | Total Impurities [34]: (6.7%) | Decitabine Content [35]: 92.5% | Total Impurities [35]: (7.6%) | Decitabine Content [36]: 90.8% | Total Impurities [36]: (9.2%) | pH after the preparation of the infusion (about 1.0 mg/mL in 5% Dextrose): 7.1 | Decitabine Content [37]: 98.0% | Total Impurities [37]: (2.0%) | Decitabine Content [38]: 97.0% | Total Impurities [38]: (3.1%) | Decitabine Content [39]: 95.6% | Total Impurities [39]: (4.4%) | Decitabine Content [40]: 93.7% | Total Impurities [40]: (6.4%) | Decitabine Content [41]: 91.9% | Total Impurities [41]: (8.1%) | Decitabine Content [42]: 97.7% | Total Impurities [42]: (2.4%) | Decitabine Content [43]: 94.5% | Total Impurities [43]: (5.5%) | Decitabine Content [44]: 93.9% | Total Impurities [44]: (6.1%) | Decitabine Content [45]: 93.0% | Total Impurities [45]: (7.1%) | pH after the preparation of the infusion (about 1.0 mg/mL in Lactated Ringer's): 6.8 | Decitabine Content [46]: 98.1% | Total Impurities [46]: (2.0%) | Decitabine Content [47]: 97.3% | Total Impurities [47]: (2.7%) | Decitabine Content [48]: 96.2% | Total Impurities [48]: (3.8%) | Decitabine Content [49]: 95.1% | Total Impurities [49]: (4.9%) | Decitabine Content [50]: 93.7% | Total Impurities [50]: (6.4%) | Decitabine Content [51]: 98.0% | Total Impurities [51]: (2.1%) | Decitabine Content [52]: 94.1% | Total Impurities [52]: (5.9%) | Decitabine Content [53]: 93.3% | Total Impurities [53]: (6.8%) | Decitabine Content [54]: 91.8% | Total Impurities [54]: (8.2%) | visual inspection of solutions (all reconstituted and diluted solutions): clear and colorless | drug content in the infusion solution during infusion (infusions prepared and stored as instructed): above 90%
Structure (SMILES): Nc1ncn([C@H]2C[C@H](O)[C@@H](CO)O2)c(=O)n1 [Decitabine, 4-amino-1-(2-deoxy-β-D-erythro-pentofuranosyl)-1,3,5-triazin-2(1H)-one]
